Test [1] addresses T1, S-adenosylhomocysteine hydrolase (AHCY) (Homo sapiens, UniProt P23526).
T1 construct: human full-length AHCY, N-terminal 6xHis tag
The experiment in a line: enzymatic turnover of SAH by purified recombinant AHCY, LC-MS quantification of adenosine. Type of test: biochemical.

The target in test [2] is T1, S-adenosylhomocysteine hydrolase (AHCY). The experiment in a line: steady-state inhibition kinetics on purified recombinant AHCY, ADA-coupled, LC-MS quantification of inosine. Type of test: biochemical.

Each structure is given as a SMILES string.

A word on the Ki: it is the dissociation constant of the complex between target and ligand, obtained from inhibition or displacement.

T1 sequence (P23526 whole entry): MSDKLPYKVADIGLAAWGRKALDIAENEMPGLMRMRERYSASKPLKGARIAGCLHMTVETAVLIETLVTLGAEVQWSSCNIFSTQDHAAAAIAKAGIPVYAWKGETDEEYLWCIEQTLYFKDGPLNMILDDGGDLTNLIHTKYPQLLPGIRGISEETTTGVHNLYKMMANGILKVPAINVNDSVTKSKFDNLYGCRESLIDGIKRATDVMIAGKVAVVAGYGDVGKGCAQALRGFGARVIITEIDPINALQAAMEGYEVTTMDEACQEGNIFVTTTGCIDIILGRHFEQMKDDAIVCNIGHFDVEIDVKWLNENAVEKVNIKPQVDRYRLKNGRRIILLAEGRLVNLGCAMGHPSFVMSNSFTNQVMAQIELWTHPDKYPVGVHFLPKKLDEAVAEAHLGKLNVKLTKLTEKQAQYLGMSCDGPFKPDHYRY

Regarding `Nc1ncnc2c1ncn2[C@@H]1O[C@H](CSCC[C@H](N)C(=O)O)[C@@H](O)[C@H]1O` [SAH], in test [1], the “enzymatic turnover of SAH by purified recombinant AHCY, LC-MS quantification of” value is given as “purified AHCY revealed that SAH is converted to adenosine in an enzyme dependent fashion”. In the case of `C[N+](C)(C)[O-]` [TMAO], the Ki in test [2] is 36.5 µM.

The values are drawn from article PMC12390942, “Gut microbiota–derived metabolite trimethylamine N-oxide alters the host epigenome through inhibition of S-adenosylhomocysteine hydrolase” (The Journal of Biological Chemistry, 2025).
